What follows are compounds tested on formalin model (assay: Formalin test in mice (primary in vivo screening and ED50)). Conditions: Mus musculus, ip; mice, intraperitoneal, doses 0.1, 1, 5 and 10 mg/kg, second phase; read-out: ED50 in the second phase of the formalin model.
Set-up: species or system ICR male mice
Description: For primary screening, the synthesized compounds were administered to mice via intraperitoneal injection at a dose of 5 mg/kg using the formalin model. The percentage inhibition in the second phase, relative to the vehicle control (DMSO/cremophor EL/distilled water = 10:10:80), was calculated.
Each compound was assessed using four doses (0.1, 1, 5, and 10 mg/kg) by intraperitoneal injection.
ICR male mice weighing 23–25 g was purchased from Samtako Korea (Osan, Republic of Korea). ICR mice were housed four per cage in a room with 12 h light–dark cycles. The temperature and relative humidity of the room were maintained at 22 ± 2 °C and 50 ± 5%, respectively. Food and water were available ad libitum. The procedures for animal testing were approved by Medifron Animal Care and Use Committees (Approval number; Medifron 2019-9). Efforts were made to minimize animal suffering and to reduce the number of animals used.
Mice were randomly assigned to five groups (four per group) and single-dose drugs were administered by intraperitoneal injection. The formalin-induced licking paw test was modified from the method described by Dubuisson and Dennis. Each mouse was acclimated to an acrylic observation chamber for at least 30 min before the injection of formalin. Twenty microliters of 2% formalin were injected subcutaneously into the right side of the hind paw. Each mouse was then placed in an individual clear plastic observational chamber (15 × 15 × 15 cm, volume = […] or 3.375 L), and the pain response was recorded for a period of 30 min. The summation of time (in seconds) spent in licking and biting responses of the injected paw during each 5 min block was measured as an indicator of the pain response. The first period (early phase) was recorded 0–5 min after the injection of formalin, and the second period (late phase) was recorded 20–30 min after the injection. The test compound was administered intraperitoneally 30 min before the formalin injection at […]: 0.1, 1, 5, and 10 mg/kg. The vehicle was DMSO/Cremophor EL/distilled water (10/10/80). The data were expressed as the mean ± standard error of the mean (SEM). Statistical analysis was assessed by one-way analysis of variance (ANOVA) with Bonferroni’s post hoc test. Statistical significance was set at p-value < 0.05, with values of p <0.001 considered highly significant.

Row | Compound | ED50
1 | N#Cc1ccc2[nH]cc(C(=O)NCCN3CCN(c4cccc(Cl)c4)CC3)c2c1 [Compound 21, N-(2-(4-(3-Chlorophenyl)piperazin-1-yl)ethyl)-5-cyano-1H-indole-3-carboxamide] | 2.3 mg/kg
2 | N#Cc1ccc2[nH]cc(C(=O)NCCN3CCN(c4cccc(C(F)(F)F)c4)CC3)c2c1 [Compound 22, 5-Cyano-N-(2-(4-(3-(trifluoromethyl)phenyl)piperazin-1-yl)ethyl)-1H-indole-3-carboxamide] | 1.3 mg/kg
3 | Cc1ccc(Sc2ccccc2N2CCN(CCNC(=O)c3c[nH]c4ccc(C#N)cc34)CC2)c(C)c1 [Compound 31, 5-Cyano-N-(2-(4-(2-((2,4-dimethylphenyl)thio)phenyl)piperazin-1-yl)ethyl)-1H-indole-3-carboxamide] | 2.66 mg/kg
4 | N#Cc1ccc2[nH]cc(C(=O)NCCCN3CCN(c4cccc(Cl)c4)CC3)c2c1 [Compound 37, N-(3-(4-(3-Chlorophenyl)piperazin-1-yl)propyl)-5-cyano-1H-indole-3-carboxamide] | 3.2 mg/kg
5 | N#Cc1ccc2[nH]cc(C(=O)NCCCN3CCN(c4ccc5ccccc5n4)CC3)c2c1 [Compound 45, 5-Cyano-N-(3-(4-(quinolin-2-yl)piperazin-1-yl)propyl)-1H-indole-3-carboxamide] | 0.93 mg/kg

Same assay, conditions: mice, 5 mg/kg intraperitoneal, second phase

Row | Compound | % Inhibition in the second phase of the formalin model relative to vehicle control
6 | N#Cc1ccc2[nH]cc(C(=O)NCCN3CCN(c4cccc(F)c4)CC3)c2c1 [Compound 20, 5-Cyano-N-(2-(4-(3-fluorophenyl)piperazin-1-yl)ethyl)-1H-indole-3-carboxamide] | 3.1%
7 | N#Cc1ccc2[nH]cc(C(=O)NCCN3CCN(c4ccc(F)cc4)CC3)c2c1 [Compound 23, 5-Cyano-N-(2-(4-(4-fluorophenyl)piperazin-1-yl)ethyl)-1H-indole-3-carboxamide] | 35.8%
8 | N#Cc1ccc2[nH]cc(C(=O)NCCN3CCN(c4ccc(Cl)cc4)CC3)c2c1 [Compound 24, N-(2-(4-(4-Chlorophenyl)piperazin-1-yl)ethyl)-5-cyano-1H-indole-3-carboxamide] | 1.6%
9 | N#Cc1ccc2[nH]cc(C(=O)NCCN3CCN(c4ccc(C(F)(F)F)cc4)CC3)c2c1 [Compound 25, 5-Cyano-N-(2-(4-(4-(trifluoromethyl)phenyl)piperazin-1-yl)ethyl)-1H-indole-3-carboxamide] | 19.8%
10 | N#Cc1ccc2[nH]cc(C(=O)NCCN3CCN(c4cccc(C(F)(F)F)n4)CC3)c2c1 [Compound 26, 5-Cyano-N-(2-(4-(6-(trifluoromethyl)pyridin-2-yl)piperazin-1-yl)ethyl)-1H-indole-3-carboxamide] | 48.6%
11 | N#Cc1ccc2[nH]cc(C(=O)NCCN3CCN(c4ncccc4Cl)CC3)c2c1 [Compound 27, N-(2-(4-(3-Chloropyridin-2-yl)piperazin-1-yl)ethyl)-5-cyano-1H-indole-3-carboxamide] | 48.0%
12 | N#Cc1ccc2[nH]cc(C(=O)NCCN3CCN(c4ccc5oc(C(N)=O)cc5c4)CC3)c2c1 [Compound 30, N-(2-(4-(2-Carbamoylbenzofuran-5-yl)piperazin-1-yl)ethyl)-5-cyano-1H-indole-3-carboxamide] | 23.8%
13 | N#Cc1ccc2[nH]cc(C(=O)NCCN3CCN(c4nsc5ccccc45)CC3)c2c1 [Compound 32, N-(2-(4-(Benzo[d]isothiazol-3-yl)piperazin-1-yl)ethyl)-5-cyano-1H-indole-3-carboxamide] | 14.3%
14 | N#Cc1ccc2[nH]cc(C(=O)NCCN3CCN(C(=O)c4ccc(F)cc4)CC3)c2c1 [Compound 33, 5-Cyano-N-(2-(4-(4-fluorobenzoyl)piperazin-1-yl)ethyl)-1H-indole-3-carboxamide] | 24.2%
15 | N#Cc1ccc2[nH]cc(C(=O)NCCN3CCN(C(=O)c4cccc(C(F)(F)F)c4)CC3)c2c1 [Compound 34, 5-Cyano-N-(2-(4-(3-(trifluoromethyl)benzoyl)piperazin-1-yl)ethyl)-1H-indole-3-carboxamide] | 2.1%
16 | N#Cc1ccc2[nH]cc(C(=O)NCCN3CCN(C(=O)C4COc5ccccc5O4)CC3)c2c1 (stereo not shown) [Compound 35, 5-Cyano-N-(2-(4-(2,3-dihydrobenzo[b][1,4]dioxine-2-carbonyl)piperazin-1-yl)ethyl)-1H-indole-3-carboxamide] | 0.4%
17 | N#Cc1ccc2[nH]cc(C(=O)NCCCN3CCN(c4cccc(C(F)(F)F)c4)CC3)c2c1 [Compound 38, 5-Cyano-N-(3-(4-(3-(trifluoromethyl)phenyl)piperazin-1-yl)propyl)-1H-indole-3-carboxamide] | 37.1%
18 | N#Cc1ccc2[nH]cc(C(=O)NCCCN3CCN(c4ccc(Cl)cc4)CC3)c2c1 [Compound 40, N-(3-(4-(4-Chlorophenyl)piperazin-1-yl)propyl)-5-cyano-1H-indole-3-carboxamide] | 4.7%
19 | N#Cc1ccc2[nH]cc(C(=O)NCCCN3CCN(c4ccc(C(F)(F)F)cc4)CC3)c2c1 [Compound 41, 5-Cyano-N-(3-(4-(4-(trifluoromethyl)phenyl)piperazin-1-yl)propyl)-1H-indole-3-carboxamide] | 16.5%
20 | N#Cc1ccc2[nH]cc(C(=O)NCCCN3CCN(c4cccc(C(F)(F)F)n4)CC3)c2c1 [Compound 42, 5-Cyano-N-(3-(4-(6-(trifluoromethyl)pyridin-2-yl)piperazin-1-yl)propyl)-1H-indole-3-carboxamide] | 45.7%
21 | N#Cc1ccc2[nH]cc(C(=O)NCCCN3CCN(c4ncccc4Cl)CC3)c2c1 [Compound 43, N-(3-(4-(3-Chloropyridin-2-yl)piperazin-1-yl)propyl)-5-cyano-1H-indole-3-carboxamide] | 45.3%
22 | N#Cc1ccc2[nH]cc(C(=O)NCCCN3CCN(c4ncccc4C(F)(F)F)CC3)c2c1 [Compound 44, 5-Cyano-N-(3-(4-(3-(trifluoromethyl)pyridin-2-yl)piperazin-1-yl)propyl)-1H-indole-3-carboxamide] | 3.7%
23 | N#Cc1ccc2[nH]cc(C(=O)NCCCN3CCN(c4ccc5oc(C(N)=O)cc5c4)CC3)c2c1 [Compound 46, N-(3-(4-(2-Carbamoylbenzofuran-5-yl)piperazin-1-yl)propyl)-5-cyano-1H-indole-3-carboxamide] | 49.2%
24 | N#Cc1ccc2[nH]cc(C(=O)NCCCN3CCN(C(=O)c4ccc(F)cc4)CC3)c2c1 [Compound 49, 5-Cyano-N-(3-(4-(4-fluorobenzoyl)piperazin-1-yl)propyl)-1H-indole-3-carboxamide] | 20.3%
25 | N#Cc1ccc2[nH]cc(C(=O)NCCCN3CCN(C(=O)c4cccc(C(F)(F)F)c4)CC3)c2c1 [Compound 50, 5-Cyano-N-(3-(4-(3-(trifluoromethyl)benzoyl)piperazin-1-yl)propyl)-1H-indole-3-carboxamide] | 2.9%

Reference: article PMC11859264, “Discovery of a Novel Multitarget Analgesic Through an In Vivo-Guided Approach” (Pharmaceuticals, 2025)
